Test [1] deals with urease. Also noted: method as in PMID 30086567. To be noted: Fig. 10; cited from earlier work.
Test [2] concerns the target metabotropic glutamate receptor 1. Also noted: method as in PMID 19674894. Conditions: Fig. 10; cited from earlier work.
The target of test [3] is glucokinase. Also noted: method as in PMID 19282189. To be noted: Fig. 10; cited from earlier work.
Test [4] addresses Adenosine A2A receptor. Also noted: method as in PMID 21210664. To be noted: Fig. 10; cited from earlier work.
Test [5] addresses stearoyl-CoA desaturase. Also noted: method as in PMID 19541482. Conditions: Fig. 10; cited from earlier work.
Test [6] deals with T1, ZAC (Homo sapiens, UniProt Q401N2).
T1 sequence (Q401N2 26-412): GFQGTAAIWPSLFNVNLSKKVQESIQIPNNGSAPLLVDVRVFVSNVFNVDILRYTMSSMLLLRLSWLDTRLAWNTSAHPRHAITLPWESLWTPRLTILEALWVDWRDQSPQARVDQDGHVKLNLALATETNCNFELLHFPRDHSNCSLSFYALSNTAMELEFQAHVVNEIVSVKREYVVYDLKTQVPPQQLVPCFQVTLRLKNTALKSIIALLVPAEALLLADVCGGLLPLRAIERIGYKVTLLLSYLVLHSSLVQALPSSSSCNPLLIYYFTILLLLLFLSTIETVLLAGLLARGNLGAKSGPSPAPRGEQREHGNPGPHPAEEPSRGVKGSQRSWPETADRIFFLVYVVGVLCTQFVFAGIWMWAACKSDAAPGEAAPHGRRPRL
Nature of the test: FMP assay at ZAC-HEK293 cells. Conditions: ZAC-HEK293 cells, FMP assay, n = 4. The test is classed as cell-based. On the procedure: The screening of the 1,680 compounds in the compound library for antagonist activity at the ZAC-HEK293 cell line was performed in the FMP assay essentially as previously described. The day before the assay, cells were split into poly-D-lysine-coated black 96-well plates with clear bottoms (BD Biosciences, Palo Alto, CA) (6 × 10^4 cells/well). The following day, the culture medium was aspirated and the wells were washed once with 100 μl assay buffer (140 mM NaCl, 4.7 mM KCl, 2.5 mM CaCl2, 1.2 mM MgCl2, 11 mM HEPES, 10 mM D-glucose, pH 7.4), after which 100 μl assay buffer supplemented with FMP dye (0.5 mg/ml) and the various test compounds were added to the wells. The plate was then incubated at 37 °C for 30 min and assayed in a NOVOStar plate reader (BMG Labtechnologies, Offenburg, Germany) measuring emission at 560 nm caused by excitation at 530 nm before and up to 1 min after the addition of 33 μl of agonist solution. In the screening, the 1,680 compounds in the compound library were tested at assay concentrations in the 10–30 μM range, using Cu^2+ as agonist at an assay concentration of 200 μM.
Data from the FMP assay was analysed using KaleidaGraph 3.08 (Synergy Software, Reading, PA). Concentration-response curves for Cu^2+ and concentration-inhibition curves for compound 1 were constructed based on the difference in the relative fluorescence units (RFU) between the maximal fluorescence recorded before and after application of Cu^2+. The data were fitted to sigmoidal curves with variable slopes using nonlinear regression, and EC50 (Cu^2+) and IC50 (compound 1) values were derived from these equations.

Test [7] has as its target T2, h5-HT3A (Homo sapiens, UniProt P46098).
T2 construct: expressed in transfected cells
T2 sequence (P46098 24-478): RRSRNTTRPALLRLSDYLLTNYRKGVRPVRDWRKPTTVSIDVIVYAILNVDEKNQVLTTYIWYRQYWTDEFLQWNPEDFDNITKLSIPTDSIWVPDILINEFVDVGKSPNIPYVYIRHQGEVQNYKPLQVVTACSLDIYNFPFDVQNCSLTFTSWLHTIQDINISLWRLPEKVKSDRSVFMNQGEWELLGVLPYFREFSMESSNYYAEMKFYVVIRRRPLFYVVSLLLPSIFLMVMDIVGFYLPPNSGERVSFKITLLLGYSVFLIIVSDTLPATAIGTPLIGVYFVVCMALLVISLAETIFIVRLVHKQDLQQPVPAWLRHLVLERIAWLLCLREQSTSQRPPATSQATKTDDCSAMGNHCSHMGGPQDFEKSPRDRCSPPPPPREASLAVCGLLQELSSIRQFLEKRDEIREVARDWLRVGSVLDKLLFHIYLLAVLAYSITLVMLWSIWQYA
Nature of the test: FMP assay at h5-HT3A-HEK293 cells. Conditions: concentrations up to 300 μM, data not shown. It is filed as cell-based.

Test [8] deals with HEK293 cells. Briefly: FMP assay at HEK293 cells. The test is classed as cell-based. Conditions: concentrations up to 300 μM, data not shown.
The subject of test [9] is Hec1/Nek2 interaction. Details: method as in PMID 18922912. To be noted: Fig. 10; cited from earlier work.
Test [10] has as its target Adenosine A1 receptor. Details: method as in PMID 11262085. To be noted: Fig. 10; cited from earlier work.
The target in test [11] is necroptosis. Details: method as in PMID 30400632. Conditions: Fig. 10; cited from earlier work.
For test [12], the target named is T1, ZAC. Conditions: Zn2+ (1 mM) as agonist, TEVC; cited from earlier work.

Each structure is given as a SMILES string.

The term IC50 denotes the midpoint of a concentration-inhibition curve. As for `O=C(Nc1nc(Cc2nnc(SCc3ccc(F)cc3)o2)cs1)c1ccccc1` [Compound 7h], the IC50 in [1] is 2200 nM.
Take `CC(C)Nc1cc(-c2csc(N(C)C(=O)c3ccc(F)cc3)n2)ncn1` [Compound 27]: the IC50 in [2] is 5.1 nM.
For orientation: EC50 means the concentration giving half of the maximal effect. Regarding `Cc1csc(NC(=O)c2cc(Oc3ccc(S(C)(=O)=O)cc3)cc(OC(C)C)c2)n1` [Compound 27e], the concentration giving a half-maximal response (EC50) in [3] was 330 nM.
By Ki is commonly meant the equilibrium dissociation constant of an inhibitor or competing ligand from its target. As for `CC(C)(C)CC(=O)Nc1c(F)cc(C(=O)Nc2nccs2)cc1F` [Compound 28], in test [4], the inhibition constant Ki was 5.9 nM.
On to `CCNc1ccc(C(=O)Nc2ncc(Cc3cccc(C(F)(F)F)c3)s2)cc1OCCO` [Compound 37c], for which the 50% inhibitory concentration (IC50) in [5] is 0.04 nM.
On to `[Cl][Cu][Cl]` [Cu^2+, CuCl2], for which the “pEC50 ± S.E.M. (agonist)” value in test [6] was found to be 4.59 ± 0.17. Besides, the EC50 in [6] (read-out: EC50 (agonist)) turned out to be 26000 nM. Moreover, the Agonist response entry in test [7] and in test [8] was “did not evoke any responses” in each case.
With `Cc1ccc(-c2csc(NC(=O)c3ccccc3)n2)c(C)c1` [INH1], the IC50 result in test [9] is given as “in uM range”.
`COc1ccc(C(=O)Nc2nc(-c3ccccc3)cs2)cc1` [LUF5433]: the IC50 in test [10] was 32 nM.
In the case of `CCn1c(SCc2ccc(C(=O)Nc3nccs3)cc2)nnc1-c1ccc(N)cc1` [NTB451], in [11], the Ki is 7900 nM.
Take `COc1cc2c3cc1Oc1cc(ccc1O)C[C@@H]1c4c(cc(OC)c(O)c4Oc4ccc(cc4)C[C@@H]3N(C)CC2)CC[N+]1(C)C` [TC, tubocurarine]: the Fitted inhibition range in test [12] is ~ 94%.
